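Cultured in 96-well plates, cells were exposed to test compound for 48 hours across five concentrations. TGI marks complete inhibition of growth.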
Legend:
Assay in all cases: NCI tumour cell line growth inhibition, 48 h
[1] = system: 786-0 renal
[2] = system: A498 renal
[3] = system: A549 NSCLC
[4] = system: ACHN renal
[5] = system: CAKI-1 renal
[6] = system: CCRF-CEM leukemia
[7] = system: COLO 205 colon
[8] = system: DLD-1 colon
[9] = system: DMS 114 small cell lung
[10] = system: DMS 273 small cell lung
[11] = system: EKVX NSCLC
[12] = system: HCC-2998 colon
[13] = system: HCT-116 colon
[14] = system: HCT-15 colon
[15] = system: HL-60(TB) leukemia
[16] = system: HOP-18 NSCLC
[17] = system: HOP-62 NSCLC
[18] = system: HOP-92 NSCLC
[19] = system: HT29 colon
[20] = system: IGROV1 ovarian
[21] = system: K-562 leukemia
[22] = system: KM12 colon
[23] = system: KM20L2 colon
[24] = system: LOX IMVI melanoma
[25] = system: LXFL 529 NSCLC
[26] = system: M14 melanoma
[27] = system: M19-MEL melanoma
[28] = system: MALME-3M melanoma
[29] = system: MOLT-4 leukemia
[30] = system: NCI-H226 lung
[31] = system: NCI-H23 lung
[32] = system: NCI-H460 lung
[33] = system: NCI-H522 lung
[34] = system: OVCAR-3 ovarian
[35] = system: OVCAR-4 ovarian
[36] = system: OVCAR-5 ovarian
[37] = system: OVCAR-8 ovarian
[38] = system: RPMI-8226 leukemia
[39] = system: RXF 393 renal
[40] = system: SF-268 CNS
[41] = system: SF-295 CNS
[42] = system: SF-539 CNS
[43] = system: SK-MEL-2 melanoma
[44] = system: SK-MEL-28 melanoma
[45] = system: SK-MEL-5 melanoma
[46] = system: SK-OV-3 ovarian
[47] = system: SN12C renal
[48] = system: SNB-19 CNS
[49] = system: SNB-75 CNS
[50] = system: SNB-78 CNS
[51] = system: SR leukemia
[52] = system: SW-620 colon
[53] = system: TK-10 renal
[54] = system: U251 CNS
[55] = system: UACC-257 melanoma
[56] = system: UACC-62 melanoma
[57] = system: UO-31 renal
[58] = system: XF 498 CNS

Measured: TGI

COC[C@@H]1[C@H]2OC(C)(C)O[C@H]2C(=O)N1C(=O)c1ccc(OC)cc1
> 100 µM: all assays above

From PubChem BioAssay (NCI)
